Tested on: acute Graft vs Host disease
Assay: Acute graft vs host disease after bone marrow + T cell transplant in lethally irradiated mice, survival (Example 5)
Format: in vivo, mice (129, female)
Settings: 129 mice, C57BL/6 bone marrow + T cells at day 0, imipenem 100 mg/kg s.c. 3 times a week day 10-21, activated charcoal 14.4 mg/g in food day 9-22
Experimental: 30 mice (129, female) were lethally irradiated and transplanted with 5 million C57BL/6 T-cell depleted bone marrow cells as well as 1 million C57BL/6 splenic T cells at day 0.
The mice were then split in 3 groups. In group A, they received no further treatment. In group B, an imipenem treatment was initiated at day 10. It consisted of an administration of imipenem (100 mg/kg), 3 times a week by subcutaneous route. The imipenem treatment was stopped at day 21. In group C, the same imipenem treatment as group B was performed. In addition, group C mice received activated charcoal (14.4 mg/g) mixed with their food in a hydrogel every day from day 9 to day 22.
The clinical status of the mice was monitored every day from day 1 to day 21.

In the case of `C[C@@H](O)[C@H]1C(=O)N2C(C(=O)O)=C(SCCN=CN)C[C@H]12` [imipenem], the “Survival at day 21” value is reported as 60%.
